Source: ChEMBL document CHEMBL1268968, “Lupane-type triterpenoids from the steamed leaves of Acanthopanax koreanum and their inhibitory effects on the LPS-stimulated pro-inflammatory cytokine production in bone marrow-derived dendritic cells” (Bioorg Med Chem Lett, 2010)

Columns and labels:
[1] = Antiinflammatory activity in C57BL/6 mouse BMDCs assessed as inhibition of LPS-stimulated IL12 production at 50 uM treated 1 hr before LPS challenge measured 18 hrs post stimulation by ELISA; type: functional, BMDC
[2] = Antiinflammatory activity in C57BL/6 mouse BMDCs assessed as inhibition of LPS-stimulated IL6 production at 50 uM treated 1 hr before LPS challenge measured 18 hrs post stimulation by ELISA; type: functional; details: C57BL/6, BMDC
[3] = Antiinflammatory activity in C57BL/6 mouse BMDCs assessed as inhibition of LPS-stimulated TNFalpha production at 50 uM treated 1 hr before LPS challenge measured 18 hrs post stimulation by ELISA; type: functional, BMDC
[4] = Toxicity in C57BL/6 mouse BMDCs at 50 uM; type: cell-based; details: bmdc

| Compound | inhibition (INH) [1] [%] | inhibition at 50 µM [2] [%] | inhibition (INH) [3] [%] | Activity [4] |
| --- | --- | --- | --- | --- |
| COC(OC)[C@H](C)[C@@H]1CC[C@]2(C(=O)O)CC[C@]3(C)[C@H](CC[C@@H]4[C@@]5(C)CC[C@@H](O)[C@@](C)(C(=O)O)[C@@H]5CC[C@]43C)[C@@H]12 | 94.2 | 63.6 | 64.7 | Non-toxic |
| C=C(C)[C@@H]1CC[C@]2(C(=O)O[C@@H]3O[C@H](CO[C@@H]4O[C@H](CO)[C@@H](O)[C@H](O)[C@H]4O)[C@@H](O)[C@H](O)[C@H]3O)CC[C@]3(C)[C@H](CC[C@@H]4[C@@]5(C)CC[C@@H](O)[C@@](C)(C(=O)O)[C@@H]5CC[C@]43C)[C@@H]12 | <50 |  |  | Non-toxic |
| C=C(C)[C@@H]1CC[C@]2(C(=O)O)CC[C@]3(C)[C@H](C[C@@H](O)[C@@H]4[C@@]5(C)CC[C@@H](O[C@@H]6O[C@H](CO)[C@@H](O)[C@H](O)[C@H]6O)C(C)(C)[C@@H]5CC[C@]43C)[C@@H]12 | <50 |  |  | Non-toxic |
| C=C(C)[C@@H]1CC[C@]2(C(=O)O)CC[C@]3(C)[C@H](CC[C@@H]4[C@@]5(C)CC[C@@H](O)[C@@](C)(C(=O)O)[C@@H]5CC[C@]43C)[C@@H]12 | <50 |  |  | Non-toxic |
| C=C(C)[C@@H]1CC[C@]2(C(=O)O)CC[C@]3(C)[C@H](C[C@@H](O)[C@@H]4[C@@]5(C)CC[C@@H](O)[C@@](C)(C=O)[C@@H]5CC[C@]43C)[C@@H]12 | 57.6 |  |  | Non-toxic |
| C=C(C)[C@@H]1CC[C@]2(C(=O)O)CC[C@]3(C)[C@H](C[C@@H](O)[C@@H]4[C@@]5(C)CC[C@@H](O)[C@@](C)(CO)[C@@H]5CC[C@]43C)[C@@H]12 | <50 |  |  | Non-toxic |
| C=C(C)[C@@H]1CC[C@]2(C(=O)O[C@@H]3O[C@H](CO[C@@H]4O[C@H](CO)[C@@H](O[C@@H]5O[C@@H](C)[C@H](O)[C@@H](O)[C@H]5O)[C@H](O)[C@H]4O)[C@@H](O)[C@H](O)[C@H]3O)CC[C@]3(C)[C@H](CC[C@@H]4[C@@]5(C)CC[C@@H](O)[C@@](C)(C(=O)O)[C@@H]5CC[C@]43C)[C@@H]12 [ACANKOREOSIDE A] | <50 |  |  | Non-toxic |
| C=C(C)[C@@H]1CC[C@]2(C(=O)O[C@@H]3O[C@H](CO[C@@H]4O[C@H](CO)[C@@H](O[C@H]5O[C@@H](C)[C@H](O)[C@@H](O)[C@H]5O)[C@H](O)[C@H]4O)[C@@H](O)[C@H](O)[C@H]3O)CC[C@]3(C)[C@H](C[C@@H](O)[C@@H]4[C@@]5(C)CC[C@@H](O)[C@@](C)(C=O)[C@@H]5CC[C@]43C)[C@@H]12 [ACANKOREOSIDE D] | <50 |  |  | Non-toxic |
| C=C(C)[C@@H]1CC[C@]2(C(=O)O[C@@H]3O[C@H](CO[C@@H]4O[C@H](CO)[C@@H](O[C@H]5O[C@@H](C)[C@H](O)[C@@H](O)[C@H]5O)[C@H](O)[C@H]4O)[C@@H](O)[C@H](O)[C@H]3O)CC[C@]3(C)[C@H](C[C@@H](O)[C@@H]4[C@@]5(C)CC[C@@H](O)C(C)(C)[C@@H]5CC[C@]43C)C12 (some centres undefined) [ACANTRIFOSIDE A] | <50 |  |  | Non-toxic |
| C=C(C)[C@@H]1CC[C@]2(C(=O)O)CC[C@]3(C)[C@H](C[C@@H](O)[C@@H]4[C@@]5(C)CC[C@@H](O)C(C)(C)[C@@H]5CC[C@]43C)[C@@H]12 [IMPRESSIC ACID] | 62.6 |  | 67.9 | Non-toxic |
| C[S+]([O-])c1ccc(-c2nc(-c3ccc(F)cc3)c(-c3ccncc3)[nH]2)cc1 (centres undefined) [SB-203580] | 84.3 |  |  |  |
